We go through 21 compounds from patent publication US20200172529A1, “Chemical Compound, Pharmaceutical Composition Thereof, and Use and Application Thereof” (Beijing Hanmi Pharm. Co., Ltd., priority 2017, published 2020).

What all share (assay type): biochemical
In test [1] the target is T1, TYK2 kinase (Homo sapiens, UniProt P29597).
T1 construct: purchased Life Technologies PR8440C
As to the kind of experiment: Inhibition assay of TYK2 kinase activity (ADP-Glo Kinase Assay). As to the method:
Determination of inhibition of TYK2 kinase activity by the examples compounds disclosed herein
Inhibition assay of TYK2 kinase activity: the method of ADP-Glo™ Kinase Assay (Promega, V9102) was used to determine the inhibitory activity of the test compounds against TYK2 kinase.
TYK2 kinase (purchased from Life Technologies, article number: PR8440C) was diluted to the 2-fold final concentration (0.8 ng/mL) using reaction buffer (40 mM Tris-HCl, pH 7.5; 20 mM MgCl2; 0.1 mg/mL BSA; 1 mM DTT), and added to a 384-well plate at 5 μL/well. The test drugs were subjected to a 10-fold gradient dilution, from 10 μM, to obtain 6 concentrations, and added to experimental wells of the 384-well plate at 2.5 μL/well. 5 μL of water and 2.5 μL of buffer were added to negative control wells. 5 μL of TYK2 and 2.5 μL of water were added to positive control wells. After incubating for 10 minutes at room temperature, the substrate ATP and polyE4Y1 (Sigma, P0275) were added at 2.5 μL/well, mixed well, and then reacted at room temperature for 60 minutes. After the reaction was completed, the kinase activity was detected according to the instruction of the kit. First, the ADP-Glo reaction reagent was added at 10 μL/well, mixed well, and reacted at room temperature for 40 minutes. The kinase detection reagent was then added at 20 μL/well, mixed well, and then reacted at room temperature for 30 minutes. The detection was then performed and the IC50s of test drugs were calculated.
(ADP-Glo first removes unused ATP, then detects ADP through luciferase.)

Test [2] addresses JAK2 kinase (Homo sapiens, UniProt O60674). The experiment in a line: Inhibition assay of JAK2 kinase activity (ADP-Glo Kinase Assay). The text has this: Inhibition assay of JAK2 kinase activity: the method in ADP-Glo™ Kinase Assay (Promega, V9102) was used to determine the inhibitory activity of the test compounds against JAK2 kinase.
Test [3] deals with JAK1 kinase (Homo sapiens, UniProt P23458). As to the kind of experiment: Inhibition assay of JAK1 kinase activity (ADP-Glo Kinase Assay). An excerpt:
Inhibition assay of JAK1 kinase activity: the method in ADP-Glo™ Kinase Assay (Promega, V9102) was used to determine the inhibitory activity of the test compounds against JAK1 kinase.

T1 sequence (P29597 whole entry): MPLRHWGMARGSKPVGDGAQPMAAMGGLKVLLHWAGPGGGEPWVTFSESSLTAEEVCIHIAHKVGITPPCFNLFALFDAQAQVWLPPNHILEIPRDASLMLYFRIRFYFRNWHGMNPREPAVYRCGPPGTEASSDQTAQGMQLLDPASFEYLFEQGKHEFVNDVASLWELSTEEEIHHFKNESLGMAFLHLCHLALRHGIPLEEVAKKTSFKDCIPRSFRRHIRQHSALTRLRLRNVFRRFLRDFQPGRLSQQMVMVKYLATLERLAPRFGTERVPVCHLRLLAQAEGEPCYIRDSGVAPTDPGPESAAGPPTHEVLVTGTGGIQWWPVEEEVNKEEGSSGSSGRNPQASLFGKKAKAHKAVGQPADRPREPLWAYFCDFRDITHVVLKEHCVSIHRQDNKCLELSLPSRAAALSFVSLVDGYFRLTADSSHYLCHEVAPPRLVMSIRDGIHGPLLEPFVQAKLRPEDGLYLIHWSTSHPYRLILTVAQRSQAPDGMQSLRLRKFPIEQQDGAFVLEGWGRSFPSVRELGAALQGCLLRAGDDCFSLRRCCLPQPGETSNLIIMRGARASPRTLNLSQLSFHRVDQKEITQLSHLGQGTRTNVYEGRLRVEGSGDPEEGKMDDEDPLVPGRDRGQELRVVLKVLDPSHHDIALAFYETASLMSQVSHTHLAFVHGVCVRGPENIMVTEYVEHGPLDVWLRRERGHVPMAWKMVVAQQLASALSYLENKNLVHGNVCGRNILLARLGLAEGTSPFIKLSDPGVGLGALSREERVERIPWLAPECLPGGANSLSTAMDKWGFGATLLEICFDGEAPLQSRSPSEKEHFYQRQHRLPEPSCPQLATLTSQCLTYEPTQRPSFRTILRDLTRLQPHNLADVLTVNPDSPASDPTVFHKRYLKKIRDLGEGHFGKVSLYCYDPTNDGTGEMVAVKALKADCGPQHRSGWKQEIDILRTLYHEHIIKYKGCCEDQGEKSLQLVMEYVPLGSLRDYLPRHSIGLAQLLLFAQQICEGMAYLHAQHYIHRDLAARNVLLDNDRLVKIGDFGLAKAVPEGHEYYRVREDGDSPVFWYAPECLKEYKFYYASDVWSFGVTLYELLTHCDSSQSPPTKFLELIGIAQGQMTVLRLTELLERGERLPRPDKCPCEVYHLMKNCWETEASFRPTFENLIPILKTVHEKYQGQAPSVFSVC
Sequence of JAK1 kinase (P23458 whole entry): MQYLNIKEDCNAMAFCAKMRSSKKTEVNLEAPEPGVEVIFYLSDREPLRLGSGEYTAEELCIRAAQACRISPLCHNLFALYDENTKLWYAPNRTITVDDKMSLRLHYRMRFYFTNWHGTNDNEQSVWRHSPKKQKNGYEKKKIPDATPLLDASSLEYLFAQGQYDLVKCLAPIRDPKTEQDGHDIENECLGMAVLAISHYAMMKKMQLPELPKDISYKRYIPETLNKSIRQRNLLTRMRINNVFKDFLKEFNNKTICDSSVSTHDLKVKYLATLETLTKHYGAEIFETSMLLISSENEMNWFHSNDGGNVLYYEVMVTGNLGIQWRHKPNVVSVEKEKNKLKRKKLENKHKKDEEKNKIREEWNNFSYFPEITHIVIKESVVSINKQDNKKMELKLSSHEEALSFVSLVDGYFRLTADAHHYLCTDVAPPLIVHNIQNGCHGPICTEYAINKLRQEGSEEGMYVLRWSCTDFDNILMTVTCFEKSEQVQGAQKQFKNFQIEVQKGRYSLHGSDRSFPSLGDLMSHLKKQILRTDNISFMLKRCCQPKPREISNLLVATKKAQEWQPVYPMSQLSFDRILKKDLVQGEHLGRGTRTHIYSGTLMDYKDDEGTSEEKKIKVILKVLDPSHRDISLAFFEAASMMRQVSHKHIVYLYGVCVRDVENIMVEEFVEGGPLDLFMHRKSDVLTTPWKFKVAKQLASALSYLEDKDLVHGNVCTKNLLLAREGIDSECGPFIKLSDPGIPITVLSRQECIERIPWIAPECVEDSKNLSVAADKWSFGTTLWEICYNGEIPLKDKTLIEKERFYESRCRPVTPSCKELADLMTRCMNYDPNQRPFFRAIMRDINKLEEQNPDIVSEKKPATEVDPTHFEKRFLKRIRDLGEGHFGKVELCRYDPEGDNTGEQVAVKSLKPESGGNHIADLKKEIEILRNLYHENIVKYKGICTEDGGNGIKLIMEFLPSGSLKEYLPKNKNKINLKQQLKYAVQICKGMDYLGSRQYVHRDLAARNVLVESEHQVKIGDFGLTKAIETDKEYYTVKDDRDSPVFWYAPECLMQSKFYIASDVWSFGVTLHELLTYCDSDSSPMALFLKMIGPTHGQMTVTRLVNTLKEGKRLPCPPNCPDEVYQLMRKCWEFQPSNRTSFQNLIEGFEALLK
Sequence of JAK2 kinase (O60674 whole entry): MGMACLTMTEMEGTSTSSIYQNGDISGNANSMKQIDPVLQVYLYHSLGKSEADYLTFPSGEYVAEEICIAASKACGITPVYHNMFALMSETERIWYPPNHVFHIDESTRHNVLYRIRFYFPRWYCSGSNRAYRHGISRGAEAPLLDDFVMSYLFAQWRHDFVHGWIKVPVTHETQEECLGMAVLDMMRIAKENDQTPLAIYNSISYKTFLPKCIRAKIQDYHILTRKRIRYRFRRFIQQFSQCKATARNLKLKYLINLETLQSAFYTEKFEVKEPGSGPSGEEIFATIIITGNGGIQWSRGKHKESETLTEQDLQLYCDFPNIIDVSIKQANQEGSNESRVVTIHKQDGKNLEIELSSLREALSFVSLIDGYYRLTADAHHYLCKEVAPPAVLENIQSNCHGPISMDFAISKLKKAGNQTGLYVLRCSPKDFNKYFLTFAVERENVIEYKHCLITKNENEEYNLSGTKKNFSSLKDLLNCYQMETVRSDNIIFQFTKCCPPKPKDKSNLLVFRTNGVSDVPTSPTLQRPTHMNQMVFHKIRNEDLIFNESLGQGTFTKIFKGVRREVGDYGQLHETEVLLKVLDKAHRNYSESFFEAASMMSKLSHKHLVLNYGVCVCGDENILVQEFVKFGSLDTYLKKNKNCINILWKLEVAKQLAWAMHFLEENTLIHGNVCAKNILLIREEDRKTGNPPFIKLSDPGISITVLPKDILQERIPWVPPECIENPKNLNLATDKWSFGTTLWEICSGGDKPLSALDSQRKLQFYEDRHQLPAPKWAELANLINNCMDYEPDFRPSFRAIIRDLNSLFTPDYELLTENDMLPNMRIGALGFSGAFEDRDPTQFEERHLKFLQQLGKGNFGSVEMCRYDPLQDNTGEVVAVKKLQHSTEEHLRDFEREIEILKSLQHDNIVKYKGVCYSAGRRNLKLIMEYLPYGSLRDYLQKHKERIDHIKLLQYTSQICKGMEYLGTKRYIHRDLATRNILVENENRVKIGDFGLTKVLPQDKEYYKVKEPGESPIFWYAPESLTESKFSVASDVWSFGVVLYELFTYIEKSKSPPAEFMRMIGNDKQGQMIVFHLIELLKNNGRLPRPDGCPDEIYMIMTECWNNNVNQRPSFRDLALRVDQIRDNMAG

One may read the IC50 as the concentration that inhibits the measured activity by half. Turning to `NC(=O)c1cnc(Nc2ccc3c(c2)NCC(O)CO3)nc1NCC(F)(F)F` (centres unmarked) [Example 7, 4-((2,2,2-trifluoroethyl)amino)-2-((3-hydroxy-2,3,4,5-tetrahydro-benzo[b][1,4]oxazepin-7-yl)amino)pyrimidin-5-carboxamide], the IC50 in test [1] was below 10 nM; in test [2], 10 to 100 nM; in test [3], 10 to 100 nM.
For the compound `COCCCNc1nc(Nc2ccc3c(c2)NC[C@H](O)CO3)ncc1C(N)=O` [Example 52, 4-((3-methoxypropyl)amino)-2-(((S)-2,3,4,5-tetrahydro-3-hydroxybenzo[b][1,4]oxazepin-7-yl)amino)pyrimidin-5-carboxamide], the IC50 in test [1] is below 10 nM; in test [3] it was 10 to 100 nM.
Turning to `NC(=O)c1cnc(Nc2ccc3c(c2)NC[C@H](O)CO3)nc1NC12CC3CC(CC(C3)C1)C2` [Example 45, 4-(adamantan-1-ylamino)-2-(((S)-2,3,4,5-tetrahydro-3-hydroxybenzo[bb][1,4]oxazepin-7-yl)amino)pyrimidin-5-carboxamide], the IC50 in test [1] and in test [3] was 10 to 100 nM in each case.
For `CCNc1nc(Nc2ccc3c(c2)NC[C@H](O)CO3)ncc1C(N)=O` [Example 40, 4-(ethylamino)-2-(((S)-2,3,4,5-tetrahydro-3-hydroxybenzo[b][1,4]oxazepin-7-yl)amino)pyrimidin-5-carboxamide], the IC50 was below 10 nM in test [1] and 10 to 100 nM in test [3].
The matching figures for `CC(Nc1nc(Nc2ccc3c(c2)NC[C@H](O)CO3)ncc1C(N)=O)C(F)(F)F` (stereo partly drawn) [Example 32, 4-(1,1,1-trifluoropropan-2-ylamino)-2-(((S)-2,3,4,5-tetrahydro-3-hydroxybenzo[b][1,4]oxazepin-7-yl)amino)pyrimidin-5-carboxamide]: 10 to 100 nM and 10 to 100 nM.
With `CCCO[C@@H]1CNc2cc(Nc3ncc(C(N)=O)c(NC4CC4)n3)ccc2OC1` [Example 84, 4-(cyclopropylamino)-2-(((R)-2,3,4,5-tetrahydro-3-propoxybenzo[b][1,4]oxazepin-7-yl)amino)pyrimidin-5-carboxamide], the IC50 in test [1], in test [2] and in test [3] was 10 to 100 nM in each case.
On to `NC(=O)c1cnc(Nc2ccc3c(c2)NC[C@H](O)CO3)nc1NC1CCC(O)CC1` (stereo partly drawn) [Example 39, 4-((4-hydroxycyclohexyl)amino)-2(((S)-2,3,4,5-tetrahydro-3-hydroxybenzo[b][1,4]oxazepin-7-yl)amino)pyrimidin-5-carboxamide], for which the IC50 in test [1] is below 10 nM; in test [3], 10 to 100 nM.
On to `NC(=O)c1cnc(Nc2ccc3c(c2)NC[C@H](O)CO3)nc1Nc1cccc2[nH]ccc12` [Example 29, 4-((1H-indol-4-yl)amino)-2-(((S)-2,3,4,5-tetrahydro-3-hydroxybenzo[b][1,4]oxazepin-7-yl)amino)pyrimidin-5-carboxamide], for which the IC50 in test [1] and in test [3] was below 10 nM each time.
Regarding `NC(=O)c1cnc(Nc2ccc3c(c2)NCC(O)CO3)nc1NC1CCOCC1` (centres unmarked) [Example 6, 4-((tetrahydropyran-4-yl)amino)-2-((3-hydroxy-2,3,4,5-tetrahydro-benzo[b][1,4]oxazepin-7-yl)amino)pyrimidin-5-carboxamide], the IC50 was below 10 nM in test [1] and 10 to 100 nM in test [3].
For the compound `Cc1cccc(Nc2nc(Nc3ccc4c(c3)NCC(O)CO4)ncc2C(N)=O)c1` (centres unmarked) [Example 17, 4-((3-methylphenyl)amino)-2-((3-hydroxy-2,3,4,5-tetrahydro-benzo[b][1,4]oxazepin-7-yl)amino)pyrimidin-5-carboxamide], the IC50 in test [1] is below 10 nM; in test [3] it was 10 to 100 nM.
For the compound `CC(C)Nc1nc(Nc2ccc3c(c2)NC[C@H](O)CO3)ncc1C(N)=O` [Example 30, 4-(isopropylamino)-2-(((S)-2,3,4,5-tetrahydro-3-hydroxybenzo[b][1,4]oxazepin-7-yl)amino)pyrimidin-5-carboxamide], the IC50 in test [1] is below 10 nM; in test [3], 10 to 100 nM.
For `NC(=O)c1cnc(Nc2ccc3c(c2)NCC(O)CO3)nc1NC1CCCCC1` (centres unmarked) [Example 4, 4-(cyclohexylamino)-2-((3-hydroxy-2,3,4,5-tetrahydro-benzo[b][1,4]oxazepin-7-yl)amino)pyrimidin-5-carboxamide] the same measures were below 10 nM and 10 to 100 nM.
`NC(=O)c1cnc(Nc2ccc3c(c2)NCC(O)CO3)nc1NCc1cccnc1` (centres unmarked) [Example 14, 4-((pyridin-3-ylmethyl)amino)-2-((3-hydroxy-2,3,4,5-tetrahydro-benzo[b][1,4]oxazepin-7-yl)amino)pyrimidin-5-carboxamide]: the IC50 was below 10 nM in test [1] and 10 to 100 nM in test [3].
For `NC(=O)c1cnc(Nc2ccc3c(c2)NC[C@H](O)CO3)nc1NC1CC(O)C1` (stereo partly drawn) [Example 36, 4-((3-hydroxycyclobutyl)amino)-2-(((S)-2,3,4,5-tetrahydro-3-hydroxybenzo[b][1,4]oxazepin-7-yl)amino)pyrimidin-5-carboxamide] the same measures were below 10 nM and 10 to 100 nM.
As to `NC(=O)c1cnc(Nc2ccc3c(c2)NC[C@H](O)CO3)nc1NC1CCC(O)C1` (stereo partly drawn) [Example 37, 4-((3-hydroxycyclopentyl)amino)-2-(((S)-2,3,4,5-tetrahydro-3-hydroxybenzo[b][1,4]oxazepin-7-yl)amino)pyrimidin-5-carboxamide], the IC50 in test [1] and in test [3] was below 10 nM in each case.
For the compound `CNc1nc(Nc2ccc3c(c2)NC[C@H](O)CO3)ncc1C(N)=O` [Example 47, 4-(methylamino)-2-(((S)-2,3,4,5-tetrahydro-3-hydroxybenzo[b][1,4]oxazepin-7-yl)amino)pyrimidin-5-carboxamide], the IC50 is below 10 nM in test [1] and 10 to 100 nM in test [3].
Consider `NC(=O)c1cnc(Nc2ccc3c(c2)NC[C@H](O)CO3)nc1NC1CCCCC1` [Example 33, 4-(cyclohexylamino)-2-(((S)-2,3,4,5-tetrahydro-3-hydroxybenzo[b][1,4]oxazepin-7-yl)amino)pyrimidin-5-carboxamide], for which the IC50 in test [1] is below 10 nM; in test [3], 10 to 100 nM.
The matching figures for `NC(=O)c1cnc(Nc2ccc3c(c2)NCC(O)CO3)nc1NC12CC3CC(CC(C3)C1)C2` (centres unmarked) [Example 5, 4-((adamantanyl-1-yl)amino)-2-((3-hydroxy-2,3,4,5-tetrahydro-benzo[b][1,4]oxazepin-7-yl)amino)pyrimidin-5-carboxamide]: 10 to 100 nM and 10 to 100 nM.
Regarding `NC(=O)c1cnc(Nc2ccc3c(c2)NC[C@H](O)CO3)nc1Nc1cccc(-c2nc[nH]n2)c1` [Example 35], the results for the IC50 in test [1] and in test [3] were below 10 nM and 10 to 100 nM, respectively.
Regarding `N#CCC(=O)N1CCC(Nc2nc(Nc3ccc4c(c3)NC[C@H](O)CO4)ncc2C(N)=O)C1` (stereo partly drawn) [Example 42, 4-((1-(2-cyanoacetyl)pyrrolidin-3-yl)amino)-2-(((S)-2,3,4,5-tetrahydro-3-hydroxybenzo[b][1,4]oxazepin-7-yl)amino)pyrimidin-5-carboxamide], the IC50 in test [1] was below 10 nM; in test [3], 10 to 100 nM.
As for `NC(=O)c1cnc(Nc2ccc3c(c2)NCC(O)CO3)nc1NC1CCCC1` (centres unmarked) [Example 3, 4-(cyclopentylamino)-2-((3-hydroxy-2,3,4,5-tetrahydro-benzo[b][1,4]oxazepin-7-yl)amino)pyrimidin-5-carboxamide], the IC50 in test [1] and in test [3] was below 10 nM throughout.
